Experimental data: patent publication US20190134033A1, “PHARMACEUTICAL COMBINATIONS” (Novartis AG, priority 2013, published 2019)

Columns and labels:
p53 = assay: Induction of p53 and its downstream target genes in ALK mutant and p53 WT neuroblastoma cell lines; assay type: cell-based
Protocol: (§1) Compound stocks of LDK378 (compound B) and NVP-CGM097 (compound A) are prepared in DMSO at a final concentration of 10 mM. Working stocks of compound A and compound B are serially diluted in the appropriate cell culture medium to achieve final assay concentrations ranging from 10 μM to 0.039 μM.
(§2) ALK+NB neuroblastoma cell line is disclosed in G. Barone, et al in the journal Clin. Cancer Res., Vol 19, pp 5814-5821 (2013).

[1] = test system: TRP-590A-SHSY5Y-XEF (ALK F1174L mutated); assay: SY5Y Xenograft, LDK378 and CGM097 alone and combined (FIG. 6); assay type: in vivo
[2] = test system: NB-1 neuroblastoma xenograft; assay: NB-1 neuroblastoma in vivo xenograft model, LDK378 and Compound C alone and combined (Example 2, FIG. 8); details: NB1 model, PO QD, LDK378 50 mg/kg, Compound C 20 mg/kg
Protocol: The combination of LDK378 (Compound B) and HDM-2/p53 inhibitor (S)-5-(5-Chloro-1-methyl-2-oxo-1,2-dihydro-pyridin-3-yl)-6-(4-chloro-phenyl)-2-(2,4- dimethoxy-pyrimidin-5-yl)-1-isopropyl-5,6-dihydro-1H-pyrrolo[3,4-d]imidazol-4-one (Compound C) were tested in NB-1 neuroblastoma in vivo xenograft model. A total of 5 animals per group were enrolled in efficacy study. For single-agent and combination studies, animals were dosed via oral gavage for both LDK378 and Compound C. LDK378 was formulated in 0.5% CMC/0.5% Tween 80, and Compound C was formulated in Methylcellulose 0.5% w/V in pH 6.8 50 mM phosphate buffer at 20 mg/kg as free base. For NB1 model, the tumors reached approximately 200 mm^3 at day 16 post implantation. On Day 16, tumor-bearing mice were randomized into treatment groups.
Animals were weighed at dosing day(s) and dose was body weight adjusted, dosing volume was 10 ml/kg. Tumor dimensions and body weights were collected at the time of randomization and twice weekly thereafter for the study duration. The following data was provided after each day of data collection: incidence of mortality, individual and group average body weights, and individual and group average tumor volume.

ALK = ALK phosphorylation in ALK mutant and p53 WT neuroblastoma cell lines; assay type: cell-based
Protocol: as §1, §2

NB-1 Xenograft = assay: NB-1 Xenograft, LDK378 single agent and combinations with CGM097 and LEE011 (FIG. 5, FIG. 7); assay type: in vivo
Description: FIG. 5 summarizes data for treatments with LDK378 (ALK inhibitor) and CGM097 (HDM-2/P53 Inhibitor) as single agents and in combination in a NB-1 Xenograft.
FIG. 7 summarizes data for LDK378 Single Agent and Combination Treatments with NVP-CGM097 in a NB-1 Xenograft. […] After treatment termination, tumors resumed growth.

Row | SMILES | induction of p53 and its downstream target genes (p53) | tumor growth under continuous treatment [1] | T/C % on day 25 [2] | T/C % on day 25 ([2]; listed as COMPOUND C) | ALK phosphorylation (ALK) | tumor growth under continuous treatment (NB-1 Xenograft)
1 | COc1cc2c(cc1OC(C)C)[C@H](c1ccc(Cl)cc1)N(c1ccc(N(C)C[C@H]3CC[C@H](N4CCN(C)C(=O)C4)CC3)cc1)C(=O)C2 [CGM097, (S)-1-(4-Chloro-phenyl)-7-isopropoxy-6-methoxy-2-(4-{methyl-[4-(4-methyl-3-oxo-piperazin-1-yl)-trans-cyclohexylmethyl]-amino}-phenyl)-1,4-dihydro-2H-isoquinolin-3-one] | caused induction of p53 and its downstream target genes | continued to grow | – | – | – | –
2 | COc1ncc(-c2nc3c(n2C(C)C)[C@H](c2ccc(Cl)cc2)N(c2cc(Cl)cn(C)c2=O)C3=O)c(OC)n1 [Compound C, (S)-5-(5-Chloro-1-methyl-2-oxo-1,2-dihydro-pyridin-3-yl)-6-(4-chloro-phenyl)-2-(2,4-dimethoxy-pyrimidin-5-yl)-1-isopropyl-5,6-dihydro-1H-pyrrolo[3,4-d]imidazol-4-one] | – | – | 50.8% | 50.80% | – | –
3 | Cc1cc(Nc2ncc(Cl)c(Nc3ccccc3S(=O)(=O)C(C)C)n2)c(OC(C)C)cc1C1CCNCC1 [LDK378, 5-chloro-N2-(2-isopropoxy-5-methyl-4-(piperidin-4-yl)phenyl)-N4-[2-(propane-2-sulfonyl)-phenyl]-pyrimidine-2,4-diamine] | – | continued to grow | 27.6% | – | inhibited ALK phosphorylation | resumed growth before day 41
